Measured values reported in patent publication US10183014B2, “Ocular formulations for drug-delivery and protection of the anterior segment of the eye” (PanOptica, Inc., priority 2014, dated 2019).
Where two headings read alike, the source gives them in different places.

Tests used:
MAP4K5 (KHS1) = MAP4K5 (KHS1) (Homo sapiens, UniProt Q9Y4K4); experiment: In vitro inhibition of tyrosine kinases; format: biochemical; settings: read-out: Mean % Inhibition at 1 μM Compound-I; 1 μM (568.9 ng/mL)
human tumor xenographs = experiment: Growth of human tumor xenographs in athymic mice; format: in vivo; settings: systemic administration
SNF1LK2 = SNF1LK2 (Homo sapiens, UniProt Q9H0K1); experiment: In vitro inhibition of tyrosine kinases; format: biochemical; settings: read-out: Mean % Inhibition at 1 μM Compound-I; 1 μM (568.9 ng/mL)
Sequence of SNF1LK2 (Q9H0K1 whole entry, species assumed): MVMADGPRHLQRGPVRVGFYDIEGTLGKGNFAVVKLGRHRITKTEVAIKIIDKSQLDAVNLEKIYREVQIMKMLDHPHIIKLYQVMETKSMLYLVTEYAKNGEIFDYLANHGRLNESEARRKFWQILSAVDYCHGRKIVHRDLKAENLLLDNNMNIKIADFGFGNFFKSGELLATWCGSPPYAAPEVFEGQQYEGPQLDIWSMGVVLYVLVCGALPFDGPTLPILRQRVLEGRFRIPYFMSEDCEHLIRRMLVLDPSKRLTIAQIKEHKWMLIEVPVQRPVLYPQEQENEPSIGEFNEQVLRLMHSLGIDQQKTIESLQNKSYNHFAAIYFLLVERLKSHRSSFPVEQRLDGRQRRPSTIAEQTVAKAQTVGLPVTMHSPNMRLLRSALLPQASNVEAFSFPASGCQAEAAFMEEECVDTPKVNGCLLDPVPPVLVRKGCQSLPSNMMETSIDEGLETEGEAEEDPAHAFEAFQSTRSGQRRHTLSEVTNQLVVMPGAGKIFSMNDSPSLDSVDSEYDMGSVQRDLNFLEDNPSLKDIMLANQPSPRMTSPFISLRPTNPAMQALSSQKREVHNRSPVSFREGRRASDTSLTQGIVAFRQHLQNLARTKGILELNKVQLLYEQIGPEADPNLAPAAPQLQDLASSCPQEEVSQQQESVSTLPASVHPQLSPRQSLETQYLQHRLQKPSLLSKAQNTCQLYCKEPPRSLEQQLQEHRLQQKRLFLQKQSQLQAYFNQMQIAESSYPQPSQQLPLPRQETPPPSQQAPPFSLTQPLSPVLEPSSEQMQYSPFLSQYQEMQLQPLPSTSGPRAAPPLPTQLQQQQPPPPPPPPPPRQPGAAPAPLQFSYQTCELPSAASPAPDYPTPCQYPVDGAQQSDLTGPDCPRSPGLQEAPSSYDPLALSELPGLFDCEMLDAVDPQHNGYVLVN

SRC N1 = SRC N1 (Homo sapiens, UniProt P12931); experiment: In vitro inhibition of tyrosine kinases; format: biochemical; settings: read-out: Mean % Inhibition at 1 μM Compound-I; 1 μM (568.9 ng/mL)
Sequence of SRC N1 (P12931 1-542 isoform P12931-2): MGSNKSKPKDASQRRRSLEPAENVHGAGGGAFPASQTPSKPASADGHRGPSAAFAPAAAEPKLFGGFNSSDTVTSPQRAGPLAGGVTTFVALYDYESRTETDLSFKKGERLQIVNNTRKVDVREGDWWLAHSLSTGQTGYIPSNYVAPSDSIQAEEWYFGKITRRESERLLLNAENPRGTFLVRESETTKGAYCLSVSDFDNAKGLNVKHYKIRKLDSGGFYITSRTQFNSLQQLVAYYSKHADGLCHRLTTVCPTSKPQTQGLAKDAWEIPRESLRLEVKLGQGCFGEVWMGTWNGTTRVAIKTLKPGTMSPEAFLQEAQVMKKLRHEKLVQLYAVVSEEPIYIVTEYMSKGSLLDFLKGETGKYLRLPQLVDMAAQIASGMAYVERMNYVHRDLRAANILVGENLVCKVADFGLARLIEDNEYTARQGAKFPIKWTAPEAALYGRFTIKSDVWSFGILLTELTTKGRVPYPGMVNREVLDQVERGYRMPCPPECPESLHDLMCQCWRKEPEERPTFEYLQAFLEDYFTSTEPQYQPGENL

[1] = system: retinal and choroidal neovascularization; experiment: Pathologic retinal and choroidal neovascularization, rodent models, topical ocular delivery; format: in vivo
MAP4K4 (HGK) = MAP4K4 (HGK) (Homo sapiens, UniProt O95819); experiment: In vitro inhibition of tyrosine kinases; format: biochemical; settings: read-out: Mean % Inhibition at 1 μM Compound-I; 1 μM (568.9 ng/mL)
Sequence of MAP4K4 (HGK) (O95819 whole entry, species assumed): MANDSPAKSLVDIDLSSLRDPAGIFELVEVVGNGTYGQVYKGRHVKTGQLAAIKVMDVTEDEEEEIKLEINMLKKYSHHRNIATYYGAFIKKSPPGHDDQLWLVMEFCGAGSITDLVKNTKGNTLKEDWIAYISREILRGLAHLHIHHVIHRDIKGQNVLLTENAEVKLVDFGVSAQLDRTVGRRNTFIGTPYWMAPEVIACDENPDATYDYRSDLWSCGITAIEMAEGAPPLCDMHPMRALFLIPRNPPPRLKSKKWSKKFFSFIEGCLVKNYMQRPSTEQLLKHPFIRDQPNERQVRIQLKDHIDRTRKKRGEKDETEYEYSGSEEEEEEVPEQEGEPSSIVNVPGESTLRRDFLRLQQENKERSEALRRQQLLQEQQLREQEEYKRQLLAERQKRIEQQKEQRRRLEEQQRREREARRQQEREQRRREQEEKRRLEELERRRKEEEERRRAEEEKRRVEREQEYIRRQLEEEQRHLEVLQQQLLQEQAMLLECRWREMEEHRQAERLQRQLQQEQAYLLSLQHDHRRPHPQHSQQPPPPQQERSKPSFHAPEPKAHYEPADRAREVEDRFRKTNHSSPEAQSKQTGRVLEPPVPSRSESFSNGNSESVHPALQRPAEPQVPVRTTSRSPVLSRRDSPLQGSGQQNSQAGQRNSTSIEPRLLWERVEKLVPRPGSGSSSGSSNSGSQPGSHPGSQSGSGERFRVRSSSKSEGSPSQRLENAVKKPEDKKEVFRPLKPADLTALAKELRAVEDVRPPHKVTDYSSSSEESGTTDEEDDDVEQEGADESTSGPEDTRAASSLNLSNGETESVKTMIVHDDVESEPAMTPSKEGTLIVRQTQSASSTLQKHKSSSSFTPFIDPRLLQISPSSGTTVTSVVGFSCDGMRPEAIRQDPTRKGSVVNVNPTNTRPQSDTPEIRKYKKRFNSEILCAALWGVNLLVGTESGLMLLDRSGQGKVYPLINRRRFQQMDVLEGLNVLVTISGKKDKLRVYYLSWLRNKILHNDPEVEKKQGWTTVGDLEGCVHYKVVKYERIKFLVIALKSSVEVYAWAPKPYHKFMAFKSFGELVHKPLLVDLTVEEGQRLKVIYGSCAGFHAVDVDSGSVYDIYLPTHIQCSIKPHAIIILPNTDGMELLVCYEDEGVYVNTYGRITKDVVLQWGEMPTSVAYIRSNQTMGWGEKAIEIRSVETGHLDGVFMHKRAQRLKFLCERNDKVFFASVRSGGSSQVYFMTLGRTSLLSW

EPHA-1 = EPHA-1 (Homo sapiens, UniProt P21709); experiment: In vitro inhibition of tyrosine kinases; format: biochemical; settings: read-out: Mean % Inhibition at 1 μM Compound-I; 1 μM (568.9 ng/mL)
Sequence of EPHA-1 (P21709 26-976, species assumed): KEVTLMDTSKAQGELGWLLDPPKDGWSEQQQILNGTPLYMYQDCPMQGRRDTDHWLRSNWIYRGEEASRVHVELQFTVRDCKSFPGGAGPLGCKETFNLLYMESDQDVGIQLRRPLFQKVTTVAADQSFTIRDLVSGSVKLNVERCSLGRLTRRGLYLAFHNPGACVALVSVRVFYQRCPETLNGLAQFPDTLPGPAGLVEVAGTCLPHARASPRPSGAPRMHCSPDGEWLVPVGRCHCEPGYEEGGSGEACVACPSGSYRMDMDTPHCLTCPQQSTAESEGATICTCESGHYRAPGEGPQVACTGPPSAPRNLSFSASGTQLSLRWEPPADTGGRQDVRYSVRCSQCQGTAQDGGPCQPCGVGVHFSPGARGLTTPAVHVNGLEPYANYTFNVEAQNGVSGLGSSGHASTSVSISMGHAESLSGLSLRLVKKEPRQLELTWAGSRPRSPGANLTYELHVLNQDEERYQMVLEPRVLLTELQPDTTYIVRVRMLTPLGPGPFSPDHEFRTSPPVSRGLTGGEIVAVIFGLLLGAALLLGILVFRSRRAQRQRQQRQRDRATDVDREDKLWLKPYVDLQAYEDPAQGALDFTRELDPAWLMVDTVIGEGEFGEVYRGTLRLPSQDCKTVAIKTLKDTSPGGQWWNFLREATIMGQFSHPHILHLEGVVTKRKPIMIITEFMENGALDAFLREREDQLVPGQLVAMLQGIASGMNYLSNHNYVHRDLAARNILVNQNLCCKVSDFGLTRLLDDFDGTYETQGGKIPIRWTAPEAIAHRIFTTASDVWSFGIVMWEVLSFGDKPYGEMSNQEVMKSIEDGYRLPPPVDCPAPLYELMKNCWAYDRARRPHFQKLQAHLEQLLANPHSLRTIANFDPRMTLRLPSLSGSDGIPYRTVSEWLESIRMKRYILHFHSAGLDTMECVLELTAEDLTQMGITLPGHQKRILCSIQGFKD

[2] = Ocular pharmacokinetics of formulations, Example 20-4; format: in vivo, Dutch Belted rabbits; settings: Day 5, 1 hr post dose
Protocol: The study design (Table 18-1) consisted of forty-nine (49) Dutch Belted rabbits, each receiving a 30 μL bilateral topical ocular dose.
Ocular sampling occurred one hour following the first daily dose on Day 5 for all groups. Whole blood samples using K2EDTA as an anticoagulant were collected from all animals on Day 5, 1 hour post dose. The whole blood was placed on ice until samples were spun in a centrifuge to separate the plasma. Aqueous humor, conjunctiva, cornea, central retina, peripheral retina, central choroid, and peripheral choroid samples were collected following necropsy. Samples were then frozen at −70° C. or lower. For all Groups 1-16, plasma, central retina, central choroid, and cornea samples were assayed for PAN-90806.

Sequence of MAP4K5 (KHS1) (Q9Y4K4 whole entry, species assumed): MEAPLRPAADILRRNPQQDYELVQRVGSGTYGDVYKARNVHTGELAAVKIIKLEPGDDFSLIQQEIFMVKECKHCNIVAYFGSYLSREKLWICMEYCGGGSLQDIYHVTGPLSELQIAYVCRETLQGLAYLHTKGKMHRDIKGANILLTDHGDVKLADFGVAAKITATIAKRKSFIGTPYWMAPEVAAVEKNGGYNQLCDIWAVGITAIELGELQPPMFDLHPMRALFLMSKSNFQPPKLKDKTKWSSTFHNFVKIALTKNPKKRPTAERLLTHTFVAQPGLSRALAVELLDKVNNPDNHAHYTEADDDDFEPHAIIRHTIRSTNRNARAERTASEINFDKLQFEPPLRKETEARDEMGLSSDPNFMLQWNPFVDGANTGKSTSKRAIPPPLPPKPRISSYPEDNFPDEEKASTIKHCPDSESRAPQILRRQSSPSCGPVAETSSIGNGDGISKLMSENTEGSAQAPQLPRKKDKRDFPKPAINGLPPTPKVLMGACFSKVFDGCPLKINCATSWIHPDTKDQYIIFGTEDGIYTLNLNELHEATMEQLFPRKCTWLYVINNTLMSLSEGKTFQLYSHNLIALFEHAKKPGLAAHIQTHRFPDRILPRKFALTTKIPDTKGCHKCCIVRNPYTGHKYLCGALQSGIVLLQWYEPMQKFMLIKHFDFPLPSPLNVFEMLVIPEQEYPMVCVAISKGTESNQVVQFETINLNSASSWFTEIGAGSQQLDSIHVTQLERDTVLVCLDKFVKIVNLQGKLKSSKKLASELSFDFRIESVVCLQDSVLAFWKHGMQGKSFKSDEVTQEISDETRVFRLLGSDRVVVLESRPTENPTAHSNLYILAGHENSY

Cl.NC(=O)c1c(OCc2c(F)cc(Br)cc2F)nsc1NC(=O)NCCCCN1CCCC1 [Compound-I, 3-[(4-bromo-2,6-difluorophenyl)methoxy]-5-[[[[4-(1-pyrrolidinyl)butyl]amino]carbonyl]amino]-4-isothiazolecarboxamide hydrochloride]
inhibition at 1 µM (MAP4K5 (KHS1)): 94%
Growth of human tumor xenographs (human tumor xenographs): inhibit
inhibition at 1 µM (SNF1LK2): 82%
inhibition at 1 µM (SRC N1): 83%
Pathologic retinal and choroidal neovascularization [1]: significant inhibition
inhibition at 1 µM (MAP4K4 (HGK)): 100%
inhibition at 1 µM (EPHA-1): 81%
concentration at 1 h ([2]; Dutch Belted, rabbit, central choroid, topical, 4 mg/mL (30 μL per eye, bilateral), pH 6, Group 3: 4 mg/mL Salt, eye drops solution (control), pH 6, QD, read-out: Central Choroid concentration): 181 nM
concentration at 1 h ([2]; Dutch Belted, rabbit, central choroid, topical, 4 mg/mL (30 μL per eye, bilateral), Group 16: 4 mg/mL Salt suspension, PSD 30 μm/XL, TRIS 0.60%, glycerol 2%, HEC 0.2%, HPMC 0.08%, VitK3 1 μM, pH 7, QD, read-out: Central Choroid concentration): 208 nM
concentration at 1 h ([2]; Dutch Belted, rabbit, central choroid, topical, 30 μL per eye of 4 mg/mL suspension, Group 7: 4 mg/mL Salt suspension, PSD 30 μm/XL, TRIS 0.60%, glycerol 2%, HEC 0.3%, Tylox 0.04%, VitK3 1 μM, pH 6, QD, read-out: Central Choroid concentration): 142 nM
concentration at 1 h ([2]; Dutch Belted, rabbit, central choroid, topical, 30 μL per eye of 4 mg/mL suspension, Group 9: 4 mg/mL Salt suspension, PSD 30 μm/XL, TRIS 0.60%, glycerol 2%, HEC 0.3%, Tylox 0.04%, VitK3 1 μM, pH 7, QD, read-out: Central Choroid concentration): 224 nM
concentration at 1 h ([2]; Dutch Belted, rabbit, central choroid, topical, 30 μL per eye of 6 mg/mL suspension, Group 6: 6 mg/mL Salt suspension, PSD 30 μm/XL, TRIS 0.60%, glycerol 2%, HEC 0.2%, HPMC 0.08%, VitK3 1 μM, pH 6, QD, read-out: Central Choroid concentration): 243 nM
concentration at 1 h ([2]; Dutch Belted, rabbit, central retina, topical, 0.3 mg/mL (30 μL per eye, bilateral), pH 6, Group 1: 0.3 mg/mL Salt, pH 6, BID, read-out: Central Retina concentration): 16.3 nM
concentration at 1 h ([2]; Dutch Belted, rabbit, central retina, topical, 1 mg/mL (30 μL per eye, bilateral), pH 6, Group 2: 1 mg/mL Salt, eye drops solution (control), pH 6, QD, read-out: Central Retina concentration): 34.7 nM
concentration at 1 h ([2]; Dutch Belted, rabbit, central retina, topical, 4 mg/mL (30 μL per eye, bilateral), pH 6, Group 3: 4 mg/mL Salt, eye drops solution (control), pH 6, QD, read-out: Central Retina concentration): 83.7 nM
concentration at 1 h ([2]; Dutch Belted, rabbit, central retina, topical, 4 mg/mL (30 μL per eye, bilateral), Group 16: 4 mg/mL Salt suspension, PSD 30 μm/XL, TRIS 0.60%, glycerol 2%, HEC 0.2%, HPMC 0.08%, VitK3 1 μM, pH 7, QD, read-out: Central Retina concentration): 74.4 nM
concentration at 1 h ([2]; Dutch Belted, rabbit, central retina, topical, 30 μL per eye of 6 mg/mL suspension, Group 6: 6 mg/mL Salt suspension, PSD 30 μm/XL, TRIS 0.60%, glycerol 2%, HEC 0.2%, HPMC 0.08%, VitK3 1 μM, pH 6, QD, read-out: Central Retina concentration): 136 nM
concentration at 1 h ([2]; Dutch Belted, rabbit, cornea, topical, 0.3 mg/mL (30 μL per eye, bilateral), pH 6, Group 1: 0.3 mg/mL Salt, pH 6, BID, read-out: Cornea concentration): 3330 nM
concentration at 1 h ([2]; Dutch Belted, rabbit, cornea, topical, 1 mg/mL (30 μL per eye, bilateral), pH 6, Group 2: 1 mg/mL Salt, eye drops solution (control), pH 6, QD, read-out: Cornea concentration): 7060 nM
concentration at 1 h ([2]; Dutch Belted, rabbit, cornea, topical, 4 mg/mL (30 μL per eye, bilateral), pH 6, Group 3: 4 mg/mL Salt, eye drops solution (control), pH 6, QD, read-out: Cornea concentration): 15900 nM
concentration at 1 h ([2]; Dutch Belted, rabbit, cornea, topical, 4 mg/mL (30 μL per eye, bilateral), Group 16: 4 mg/mL Salt suspension, PSD 30 μm/XL, TRIS 0.60%, glycerol 2%, HEC 0.2%, HPMC 0.08%, VitK3 1 μM, pH 7, QD, read-out: Cornea concentration): 14700 nM
concentration at 1 h ([2]; Dutch Belted, rabbit, cornea, topical, 30 μL per eye of 6 mg/mL suspension, QD, pH 6, Group 6: 6 mg/mL Salt suspension, PSD 30 μm/XL, TRIS 0.60%, glycerol 2%, HEC 0.2%, HPMC 0.08%, VitK3 1 μM, pH 6, QD, read-out: Cornea concentration): 14400 nM
concentration at 1 h ([2]; Dutch Belted, rabbit, plasma, topical, 1 mg/mL (30 μL per eye, bilateral), pH 6, Group 2: 1 mg/mL Salt, eye drops solution (control), pH 6, QD, read-out: Plasma concentration): 2.67 nM
concentration at 1 h ([2]; Dutch Belted, rabbit, plasma, topical, 4 mg/mL (30 μL per eye, bilateral), pH 6, Group 3: 4 mg/mL Salt, eye drops solution (control), pH 6, QD, read-out: Plasma concentration): 4.5 nM
concentration at 1 h ([2]; Dutch Belted, rabbit, plasma, topical, 30 μL per eye of 4 mg/mL suspension, Group 7: 4 mg/mL Salt suspension, PSD 30 μm/XL, TRIS 0.60%, glycerol 2%, HEC 0.3%, Tylox 0.04%, VitK3 1 μM, pH 6, QD, read-out: Plasma concentration): 5.56 nM
concentration at 1 h ([2]; Dutch Belted, rabbit, plasma, topical, 30 μL per eye of 6 mg/mL suspension, QD, pH 6, Group 6: 6 mg/mL Salt suspension, PSD 30 μm/XL, TRIS 0.60%, glycerol 2%, HEC 0.2%, HPMC 0.08%, VitK3 1 μM, pH 6, QD, read-out: Plasma concentration): 9.98 nM
Plasma concentration ([2]; Group 1: 0.3 mg/mL Salt, pH 6, BID, LLOQ = 0.00188 μM): <LLOQ
Central Choroid concentration ([2]; Group 1: 0.3 mg/mL Salt, pH 6, BID, LLOQ = 0.0563 μM): <LLOQ
concentration at 1 h ([2]; Group 7: 4 mg/mL Salt suspension, PSD 30 μm/XL, TRIS 0.60%, glycerol 2%, HEC 0.3%, Tylox 0.04%, VitK3 1 μM, pH 6, QD, read-out: Central Retina concentration): 69.7 nM
Plasma concentration ([2]; Group 8: 4 mg/mL Salt suspension, PSD 30 μm/XL, TRIS 0.60%, glycerol 2%, HEC 0.2%, Tylox 0.04%, VitK3 1 μM, pH 6, QD): 6.62 nM
concentration at 1 h ([2]; Group 8: 4 mg/mL Salt suspension, PSD 30 μm/XL, TRIS 0.60%, glycerol 2%, HEC 0.2%, Tylox 0.04%, VitK3 1 μM, pH 6, QD, read-out: Central Choroid concentration): 152 nM
concentration at 1 h ([2]; Group 8: 4 mg/mL Salt suspension, PSD 30 μm/XL, TRIS 0.60%, glycerol 2%, HEC 0.2%, Tylox 0.04%, VitK3 1 μM, pH 6, QD, read-out: Central Retina concentration): 90.1 nM
